Values after ≈ are worked out from the molar mass of the structure shown. Where a SMILES comes first, the peptide text is derived from it. Bridges are numbered along the chain shown (N, C = ends). [ ]: non-standard residue; d: D form. The star is where a group is joined. ξ: configuration not given here. d(aThr) = C[C@@H](O)[C@@H](N)C(=O)O; Octanoyl(3-OH) = CCCCCC(O)CC(=O)*; X1 = CCCCCC(CC(=O)*)OC(C)=O; dDab = NCC[C@@H](N)C(=O)O; hSer = N[C@@H](CCO)C(=O)O; ξQ = NC(=O)CCC(N)C(=O)O; Dhb = C/C=C(\N)C(=O)O; ξL = CC(C)CC(N)C(=O)O; ξDab = NCCC(N)C(=O)O; ξK = NCCCCC(N)C(=O)O; ξT = CC(O)C(N)C(=O)O; ξV = CC(C)C(N)C(=O)O; ξAbu = CCC(N)C(=O)O; ξP = O=C(O)C1CCCN1; ξS = NC(CO)C(=O)O
Columns and labels:
[1] = test system: Colletotrichum truncatum 17-5-5; settings: strain 17-5-5; lipodepsipeptides, serial dilutions from 0.1 to 1 μg/mL, potato dextrose broth, 24-well plates, 28 °C, 7 days; lowest concentration with no visible growth; triplicate
Experimental: The antifungal activity was performed in 24-well culture plates according to the method previously described[31] with some modification. Serial dilutions of different lipodepsipeptides (from 0.1 to 1 μg/mL) and cyclic dipeptides (from 10 to 1000 μg/mL) were dissolved in a volume of 500 μL of ultrapure Milli-Q and finally inoculated with 500 μL of 2× potato dextrose broth (Difco) containing the Colletotrichum truncatum plug of 4 mm × 4 mm diameter. As a control, C. truncatum plugs (4 mm × 4 mm) were grown in 2× PD broth diluted with 500 μL of ultrapure Milli-Q water, and the plates were incubated at 28 °C for 7 days. The MIC was measured as the lowest concentration of antifungal agent at which there was no visible growth of the fungus after incubation. The experiment was performed in triplicate.

[2] = test system: all the bacteria and the fungus tested; test: Antimicrobial and antifungal tests, MIC ranges summarised over the panel; format: cell-based; settings: for reduction of activity with respect to that of 9: compared with compound 9
Experimental: (§1) The experiment was performed in triplicate.
as §1

Phytophthora infestans = settings: cited from earlier work
Plasmopara viticola = settings: cited from earlier work
Bacillus subtilis PY79 = settings: PY79, 48 h
Experimental: (§2) Bacteria were grown in LB broth at 25 or 37 °C overnight at 150 rpm. A total of 500 μL of a suspension containing about 10^8 cfu mL^–1 were added to 3 mL of LB soft agar (0.7%) and poured onto plates containing 7 mL of LB broth with agar 1.8%. After agar gelification, 10 μL drops of serial dilutions of different lipodepsipeptides and their derivatives (from 0.1 to 1 μg/mL) and cyclic dipeptides (from 10 to 1000 μg/mL) were tested. After 24 ± 48 h of incubation at 25 or 37 °C, the end serial dilution inhibiting the growth of the bacteria in the area of application of 10 μL solutions was recorded. The plates containing the bacteria alone were used as a control. The experiment was performed in triplicate.

Bacillus megaterium QMB = settings: 48 h
Experimental: as §2

Rhodococcus fascians LMG = settings: cited from earlier work
[3] = lipodepsipeptides and derivatives, range over all the bacteria and the fungus tested (summary of Table 1)
[4] = 2,5-diketopiperazines, range over all microorganisms tested (summary of Table 2)

C/C=C(\NC(=O)[C@H](NC(=O)[C@H](CC(C)C)NC(=O)[C@@H](CCC(N)=O)NC(=O)[C@@H](NC(=O)[C@H](NC(=O)[C@@H](CC(C)C)NC(=O)[C@@H](CO)NC(=O)[C@H](NC(=O)[C@@H](CC(C)C)NC(=O)[C@@H](CO)NC(=O)[C@H]1CCCN1C(=O)/C(=C/C)NC(=O)CC(O)CCCCC)C(C)C)C(C)C)C(C)C)C(C)C)C(=O)N[C@H]1C(=O)N[C@@H]([C@@H](C)CC)C(=O)N[C@@H](CCO)C(=O)N[C@H](CCN)C(=O)N[C@@H](CCCCN)C(=O)O[C@@H]1C (stereo partly drawn) [compound 1, tolaasin I] ({Octanoyl(3-OH)}-[Dhb][dP][dS][dL][dV][dS][dL][dV]V[dQ]L[dV][Dhb][d(aThr)]I[hSer][dDab]K; ester 14-C)
MIC [1]: 0.6 µg/mL (≈ 0.302 µM)

C/C=C(\NC(=O)C(NC(=O)C(CC(C)C)NC(=O)C(CCC(N)=O)NC(=O)C(NC(=O)C(NC(=O)C(CC(C)C)NC(=O)C(CO)NC(=O)C(NC(=O)C(CC(C)C)NC(=O)C(CO)NC(=O)C1CCCN1C(=O)/C(=C/C)NC(=O)CC(O)CCCCC)C(C)C)C(C)C)C(C)C)C(C)C)C(=O)NC1C(=O)N[C@@H](CC(C)C)C(=O)N[C@@H](CCO)C(=O)NC(CCN)C(=O)NC(CCCCN)C(=O)OC1C (stereo partly drawn) [compound 7, tolaasin D] ({Octanoyl(3-OH)}-[Dhb][ξP][ξS][ξL][ξV][ξS][ξL][ξV][ξV][ξQ][ξL][ξV][Dhb][ξT]L[hSer][ξDab][ξK]; ester 14-C)
MIC [1]: 0.2 µg/mL (≈ 0.101 µM)
MIC range [2, 3]: 0.1 to 0.2 µg/mL

O=C1N[C@@H](Cc2ccc(O)cc2)C(=O)N2CCC[C@@H]12 [compound 9, cyclo(L-Pro-L-Tyr)]
antifungal activity against Phytophthora infestans (Phytophthora infestans): showed antifungal activity
MIC range [2, 4]: 15 to 20 µg/mL
antifungal activity against Plasmopara viticola (Plasmopara viticola): showed antifungal activity

CC(C)C[C@@H]1NC(=O)[C@@H]2CCCN2C1=O [compound 13, cyclo(L-Pro-L-Leu)]
MIC (Bacillus subtilis PY79): 15 µg/mL (≈ 71.3 µM)
reduction of activity with respect to that of 9 ([2]; 2,5-diketopiperazines): 40–50 times
MIC (Bacillus megaterium QMB): 30 µg/mL (≈ 143 µM)

O=C1N[C@@H](Cc2ccc(O)cc2)C(=O)N2CCC[C@H]12 [compound 14, cyclo(D-Pro-L-Tyr)]
reduction of activity with respect to that of 9 ([2]; 2,5-diketopiperazines): 50–60 times

C/C=C(\NC(=O)[C@H](NC(=O)[C@H](CC(C)C)NC(=O)[C@@H](CCC(N)=O)NC(=O)[C@@H](NC(=O)[C@H](NC(=O)[C@@H](CC(C)C)NC(=O)[C@@H](COC(C)=O)NC(=O)[C@H](NC(=O)[C@@H](CC(C)C)NC(=O)[C@@H](COC(C)=O)NC(=O)[C@H]1CCCN1C(=O)/C(=C/C)NC(=O)CC(CCCCC)OC(C)=O)C(C)C)C(C)C)C(C)C)C(C)C)C(=O)N[C@H]1C(=O)N[C@@H]([C@@H](C)CC)C(=O)N[C@@H](CCOC(C)=O)C(=O)N[C@H](CCNC(C)=O)C(=O)N[C@@H](CCCCNC(C)=O)C(=O)O[C@@H]1C (stereo partly drawn) [compound 15, hexacetyl tolaasin I] (X1-[Dhb][dP][dS](Ac)[dL][dV][dS](Ac)[dL][dV]V[dQ]L[dV][Dhb][d(aThr)]I[hSer](Ac)[dDab](Ac)K(Ac); ester 14-C)
MIC [1]: 1 µg/mL (≈ 0.446 µM)
MIC range ([2]; lipodepsipeptides and derivatives, range against the pathogenic bacteria and C. truncatum only): 0.7 to 1 µg/mL
MIC range [2, 3]: 0.7 to 1 µg/mL

CCCCCC(O)CC(=O)NC(CC)C(=O)N1CCC[C@@H]1C(=O)N[C@H](CO)C(=O)N[C@H](CC(C)C)C(=O)N[C@@H](C(=O)N[C@H](CO)C(=O)N[C@H](CC(C)C)C(=O)N[C@@H](C(=O)N[C@H](C(=O)N[C@H](CCC(N)=O)C(=O)N[C@@H](CC(C)C)C(=O)N[C@@H](C(=O)NC(CC)C(=O)N[C@H]1C(=O)N[C@@H]([C@@H](C)CC)C(=O)N[C@@H](CCO)C(=O)N[C@H](CCN)C(=O)N[C@@H](CCCCN)C(=O)O[C@@H]1C)C(C)C)C(C)C)C(C)C)C(C)C (stereo partly drawn) [compound 16, tetrahydro tolaasin I] ({Octanoyl(3-OH)}-[ξAbu][dP][dS][dL][dV][dS][dL][dV]V[dQ]L[dV][ξAbu][d(aThr)]I[hSer][dDab]K; ester 14-C)
MIC [1]: 3 µg/mL (≈ 1.51 µM)
MIC range [2, 3]: 0.2 to 3 µg/mL

WLIP methyl ester [WILP methyl ester]
MIC [1]: 5 µg/mL

cyclo(L-Pro-L-Val) [compound 11]
MIC range [2, 4]: not toxic
toxicity against Rhodococcus fascians (Rhodococcus fascians LMG): toxicity similar to that of chloramphenicol

Reference: paper PMC9026286, “Bacterial Lipodepsipeptides and Some of Their Derivatives and Cyclic Dipeptides as Potential Agents for Biocontrol of Pathogenic Bacteria and Fungi of Agrarian Plants” (Journal of Agricultural and Food Chemistry, 2022)
